The source of these data is article PMC9730523 (Frontiers in Immunology, 2022).

Structures are written as SMILES.

Data set [1] addresses T1, hMC5 (Homo sapiens, UniProt P33032). Put plainly: cAMP accumulation assay, transfected HEK293A. As to conditions: HEK293-A, 0.25 h, read-out: Top. Details: dose or concentration left out as unconfirmed.
Description: (§1) HEK293A cells were maintained in DMEM containing 10% fetal calf serum (FCS), 2 mM L-glutamine, 100 U/ml penicillin, and 100 μg/ml streptomycin and kept at 37°C with 5% CO2.
(§2) Twenty-four hours after transfection, cells were serum-starved for 3 hours to reduce and stabilize basal levels of cAMP. Melanocortin agonists were tested using 1/5 serial dilutions to generate concentration response curves starting at 10 or 0.4 µM. Vehicle was used as negative control, and forskolin (3 µM, Tocris Bioscience) as positive control. Compound solutions were prepared in serum-free DMEM containing 10 mM 3-isobutyl-1-methylxanthine (IBMX; Sigma), to inhibit phosphodiesterase activity. […] Optical Density (OD) measurements were converted to cAMP concentration using a standard curve and results were normalized subtracting background signal and calculated as % of forskolin.
In data set [2] the target is T2, mMC1 (Mus musculus, UniProt Q01727). Description: ERK1/2 phosphorylation assay, transfected HEK293A. In kind it is cell-based. More on the design: host or cells: HEK293A. The note with it: HEK293-A, 5 min; p-ERK1/2, mMC1; normalised maximal efficacy at 2μM, percentage of maximal αMSH response; read-out: Top.
Description: as §1
(§3) Twenty-four hours after transfection, cells were serum-starved for 3 hours to reduce and stabilize basal levels of phospho-ERK1/2. Concentration response curves were generated by 1/5 serial dilutions as above. Drug solutions were prepared in serum-free DMEM. Cells were stimulated for 5 min with the different compounds and lysed immediately with ice-cold extraction buffer supplied in the ERK1/2 (pT202/Y204) SimpleStep ELISA Kit (Abcam ab176640; Cambridge, UK), according to manufacturer instructions. Total protein was also quantified by Bradford to normalize p-ERK1/2 response.
Data set [3] addresses T3, mMC4 (Mus musculus, UniProt P56450).
T3 construct: host or cells: HEK293A
Put plainly: ERK1/2 phosphorylation assay, transfected HEK293A. The note with it: HEK293-A, 5 min; p-ERK1/2, mMC4; normalised maximal efficacy at 2μM, percentage of maximal αMSH response; read-out: Top. In kind it is cell-based.
Description: (§4) HEK293A cells were maintained in DMEM containing 10% fetal calf serum (FCS), 2 mM L-glutamine, 100 U/ml penicillin, and 100 μg/ml streptomycin and kept at 37°C with 5% CO2. […] Total protein was also quantified by Bradford to normalize p-ERK1/2 response.

The target in data set [4] is T4, mMC5 (Mus musculus, UniProt P41149). Put plainly: cAMP accumulation assay, transfected HEK293A. More on the design: dose or concentration left out as unconfirmed. As to conditions: HEK293-A, 0.25 h, read-out: Top. In general terms: cAMP levels reflect the balance of adenylyl cyclase and phosphodiesterase activity.
Description: as §1, §2
The target in data set [5] is T5, hMC3 (Homo sapiens, UniProt P41968). Put plainly: cAMP accumulation assay, transfected HEK293A. As to conditions: HMC3, 0.25 h, read-out: Top. More on the design: dose or concentration left out as unconfirmed.
Description: as §1, §2
In data set [6] the target is T6, hMC4 (Homo sapiens, UniProt P32245).
T6 construct: host or cells: HEK293A
Description: cAMP accumulation assay, transfected HEK293A. In kind it is cell-based. As to conditions: HEK293-A, 0.25 h, normalised maximal efficacy at 2μM, percentage of maximal αMSH response, read-out: Top.
Description: (§5) HEK293A cells were maintained in DMEM containing 10% fetal calf serum (FCS), 2 mM L-glutamine, 100 U/ml penicillin, and 100 μg/ml streptomycin and kept at 37°C with 5% CO2. […] Compound solutions were prepared in serum-free DMEM containing 10 mM 3-isobutyl-1-methylxanthine (IBMX; Sigma), to inhibit phosphodiesterase activity. […] Optical Density (OD) measurements were converted to cAMP concentration using a standard curve and results were normalized subtracting background signal and calculated as % of forskolin.

Data set [7] deals with T1, hMC5. Description: ERK1/2 phosphorylation assay, transfected HEK293A. In kind it is cell-based. Details: host or cells: HEK293A. The note with it: HEK293-A, 5 min; p-ERK1/2, hMC5; normalised maximal efficacy at 2μM, percentage of maximal αMSH response; read-out: Top.
Description: as §1, §3
Data set [8] deals with T7, hMC1 (Homo sapiens, UniProt Q01726). Put plainly: ERK1/2 phosphorylation assay, transfected HEK293A. Details: host or cells: HEK293A. In kind it is cell-based. As to conditions: 5 min; p-ERK1/2, hMC1; normalised maximal efficacy at 2μM, percentage of maximal αMSH response; read-out: Top.
Description: as §1, §3
The conditions of data set [9]: humans, single subcutaneous administration; cited from earlier work.
Data set [10] deals with T3, mMC4. Description: cAMP accumulation assay, transfected HEK293A. In kind it is cell-based. As to conditions: HEK293-A, 0.25 h, normalised maximal efficacy at 2μM, percentage of maximal αMSH response, read-out: Top.
Description: as §5
Data set [11] has as its target T7, hMC1. Put plainly: cAMP accumulation assay, transfected HEK293A. More on the design: dose or concentration left out as unconfirmed. As to conditions: HMC1, 0.25 h, read-out: Top.
Description: as §1, §2
The target of data set [12] is T2, mMC1. Description: cAMP accumulation assay, transfected HEK293A. Details: dose or concentration left out as unconfirmed. As to conditions: HEK293-A, 0.25 h, read-out: Top.
Description: as §1, §2
In data set [13] the target is T4, mMC5. Description: ERK1/2 phosphorylation assay, transfected HEK293A. In kind it is cell-based. Details: host or cells: HEK293A. The note with it: HEK293-A, 5 min; p-ERK1/2, mMC5; normalised maximal efficacy at 2μM, percentage of maximal αMSH response; read-out: Top.
Description: as §1, §3
For data set [14], the target named is T5, hMC3. Put plainly: ERK1/2 phosphorylation assay, transfected HEK293A. In kind it is cell-based. Details: host or cells: HEK293A. The note with it: 5 min; p-ERK1/2, hMC3; normalised maximal efficacy at 2μM, percentage of maximal αMSH response; read-out: Top.
Description: as §1, §3
Data set [15] addresses T6, hMC4. Put plainly: ERK1/2 phosphorylation assay, transfected HEK293A. In kind it is cell-based. As to conditions: HEK293-A, 5 min; p-ERK1/2, hMC4; normalised maximal efficacy at 2μM, percentage of maximal αMSH response; read-out: Top.
Description: as §4

T2 sequence (Q01727 whole entry): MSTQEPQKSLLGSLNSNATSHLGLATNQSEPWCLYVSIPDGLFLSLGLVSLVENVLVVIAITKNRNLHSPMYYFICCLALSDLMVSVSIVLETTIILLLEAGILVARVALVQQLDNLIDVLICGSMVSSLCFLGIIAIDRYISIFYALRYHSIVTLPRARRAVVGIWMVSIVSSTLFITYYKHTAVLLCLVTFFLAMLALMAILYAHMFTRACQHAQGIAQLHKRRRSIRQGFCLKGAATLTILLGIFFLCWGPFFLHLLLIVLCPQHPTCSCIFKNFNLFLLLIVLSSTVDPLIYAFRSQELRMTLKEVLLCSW
T1 sequence (P33032 whole entry): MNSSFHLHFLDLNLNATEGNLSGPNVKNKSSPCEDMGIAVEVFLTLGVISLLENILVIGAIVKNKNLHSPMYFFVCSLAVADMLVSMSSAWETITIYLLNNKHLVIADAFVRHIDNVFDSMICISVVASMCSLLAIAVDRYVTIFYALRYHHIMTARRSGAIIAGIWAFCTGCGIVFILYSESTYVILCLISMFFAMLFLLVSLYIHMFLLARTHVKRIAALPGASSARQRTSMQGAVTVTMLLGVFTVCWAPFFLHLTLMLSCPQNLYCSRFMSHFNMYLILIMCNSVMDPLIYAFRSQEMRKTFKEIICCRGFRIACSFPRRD
T4 sequence (P41149 whole entry): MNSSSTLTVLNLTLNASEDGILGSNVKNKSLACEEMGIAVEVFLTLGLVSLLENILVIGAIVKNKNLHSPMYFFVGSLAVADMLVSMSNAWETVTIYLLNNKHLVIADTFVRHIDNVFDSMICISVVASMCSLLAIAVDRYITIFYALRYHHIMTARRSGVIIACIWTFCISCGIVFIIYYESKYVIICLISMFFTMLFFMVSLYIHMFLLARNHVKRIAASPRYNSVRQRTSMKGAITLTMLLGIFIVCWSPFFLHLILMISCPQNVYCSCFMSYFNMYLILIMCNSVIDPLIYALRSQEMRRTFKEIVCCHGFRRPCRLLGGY
T5 sequence (P41968 whole entry): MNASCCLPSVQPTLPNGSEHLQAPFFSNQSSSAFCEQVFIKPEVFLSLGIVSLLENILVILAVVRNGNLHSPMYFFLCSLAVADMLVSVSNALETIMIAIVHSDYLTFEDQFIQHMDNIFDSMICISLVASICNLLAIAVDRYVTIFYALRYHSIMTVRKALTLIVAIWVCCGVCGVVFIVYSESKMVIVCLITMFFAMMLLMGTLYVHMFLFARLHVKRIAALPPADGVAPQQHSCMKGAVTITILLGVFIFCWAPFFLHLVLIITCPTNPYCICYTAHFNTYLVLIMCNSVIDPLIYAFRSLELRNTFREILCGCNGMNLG
T6 sequence (P32245 whole entry): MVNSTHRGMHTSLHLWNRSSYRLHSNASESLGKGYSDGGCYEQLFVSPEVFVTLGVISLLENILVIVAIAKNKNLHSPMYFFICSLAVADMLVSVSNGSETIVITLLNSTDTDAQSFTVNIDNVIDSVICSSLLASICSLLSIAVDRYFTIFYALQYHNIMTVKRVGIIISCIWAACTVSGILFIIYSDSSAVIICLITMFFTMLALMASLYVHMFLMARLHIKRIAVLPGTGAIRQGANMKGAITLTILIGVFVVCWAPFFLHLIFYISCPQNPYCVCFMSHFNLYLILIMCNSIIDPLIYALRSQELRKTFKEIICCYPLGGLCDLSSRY
T3 sequence (P56450 whole entry): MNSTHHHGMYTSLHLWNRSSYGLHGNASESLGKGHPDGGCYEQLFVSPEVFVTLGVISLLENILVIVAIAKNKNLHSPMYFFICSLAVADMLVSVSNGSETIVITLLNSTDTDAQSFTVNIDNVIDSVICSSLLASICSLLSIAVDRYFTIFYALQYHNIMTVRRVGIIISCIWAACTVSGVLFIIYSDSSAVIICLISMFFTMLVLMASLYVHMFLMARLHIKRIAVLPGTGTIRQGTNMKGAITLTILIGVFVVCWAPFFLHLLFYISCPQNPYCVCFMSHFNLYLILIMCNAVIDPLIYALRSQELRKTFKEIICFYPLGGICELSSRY
T7 sequence (Q01726 whole entry): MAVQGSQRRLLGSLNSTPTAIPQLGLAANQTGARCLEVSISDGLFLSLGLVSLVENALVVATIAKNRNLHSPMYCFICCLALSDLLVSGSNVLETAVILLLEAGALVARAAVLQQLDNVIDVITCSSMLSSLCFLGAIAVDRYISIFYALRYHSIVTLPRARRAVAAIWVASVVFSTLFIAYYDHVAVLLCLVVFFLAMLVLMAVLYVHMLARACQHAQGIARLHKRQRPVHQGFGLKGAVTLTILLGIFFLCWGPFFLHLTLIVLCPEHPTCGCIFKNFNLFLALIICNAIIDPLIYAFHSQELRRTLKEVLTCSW

Turning to `CCCC[C@H](NC(C)=O)C(=O)N[C@H]1CCC(=O)NC[C@@H](C(=O)N[C@@H](Cc2c[nH]c3ccccc23)C(N)=O)NC(=O)[C@H](CCCNC(=N)N)NC(=O)[C@@H](Cc2ccccc2)NC(=O)[C@H](Cc2c[nH]cn2)NC1=O` [PL8177, Ac-Nle^1-cyclo(Glu^2-L-His^3-D-Phe^4-Arg^5-Dap^6)-Trp^7-NH2], the Emax stood at 38.2% in data set [1]; 99.7% in data set [2]; 80.7% in data set [3]; 14.8% in [4]; 10.9% in data set [5]; 62.7% in data set [7]. Also, the Emax in [8] came to 136%; in [11], 112%; in data set [12], 103%; in data set [13], 18.6%; in [14] it was 70.1%; in data set [15] it was 56.1%. Also, the Emax at 2 µM is 26.5% in data set [6] and 75.1% in data set [10]. Moreover, in [9], the “persisting plasma levels after administration” value is 48 h.
